Patent US20050063956A1, “Method and device for attracting insects” (Colorado State University Research Foundation, priority 1998, published 2005)

How the values were obtained:
[1] = system: western corn root worm larvae; assay: Glass bead Y-tube choice test, corn volatiles versus CO2 (Example 19); design: species or system Diabrotica virgifera virgifera LeConte; details: in vivo
Method: Bioassay Procedure. All bioassays were choice tests conducted using a vertical glass “Y” tube apparatus filled with 3-mm glass beads (Bernklau and Bjostad 1998) (FIG. 62). Volatile compounds were prepared in 35-ml polyethylene syringes (cat no. 106-0490, Sherwood Medical, St. Louis, Mo.) and a syringe pump (Sage Model 355, Fisher Scientific, Pittsburgh, Pa.) was used to provide, slow (1 ml per min) consistent delivery of the compounds into each choice arm of the bioassay apparatus. Twenty newly-hatched larvae (less than 12-hours-old) were used for each bioassay. Non-diapausing larvae were used for all experiments unless otherwise indicated below. For each choice test a minimum of 10 replicates were conducted.
Corn Headspace Versus CO2. Using the glass bead bioassay (Bernklau and Bjostad 1998) the headspace over germinating corn seeds was tested in a choice test against a series of CO2 concentrations to determine if corn volatiles (including CO2) were more attractive to the larvae than CO2 alone. A 35-ml syringe was filled with the headspace over 3-day-old germinating corn seedlings by means of a 25-cm length of slender Teflon tubing inserted into a hole drilled into the cover of the tub containing the corn seedlings.
Three different concentrations of CO2 were tested on the control side of the choice test. In the 1 st test, we used ambient room air on the control side, which contains a lower concentration of CO2 than the corn headspace (approximately 1.0 mmol/mol). In the 2nd test, we used GC-MS-SIM to match the CO2 concentration in the syringe on the control side to be equal to that measured in the syringe containing corn headspace. In the 3rd test, the syringe on the control side of the choice test contained a CO2 concentration twice that measured in the corn headspace. To prepare each of these control concentrations, a 2nd 35-ml polyethylene syringe was partially filled (approximately 5 ml) from a tank containing pure (100%) CO2 using a glass syringe. Headspace from a plastic tub containing only moist germination paper was drawn into the syringe to fill it, mixing the air and CO2 thoroughly at the same time. The gas mixtures in the polyethylene syringes were allowed to equilibrate for 15 minutes, and GC-MS-SIM was used to verify the CO2 concentrations in both syringes prior to each bioassay.
Corn Headspace Versus CO2 with Diapausing Larvae. The larvae used in our studies were from a colony of nondiapausing western corn root worm that has been maintained in our laboratory since 1986. We wished to determine if diapausing western corn root worm larvae would respond differently to corn volatiles than the colony larvae. Using the same method described above, the headspace over germinating corn seeds was tested in a choice test against a series of CO2 concentrations with western corn root worm larvae from a diapausing strain.
Corn Headspace-Coated Glass Beads versus CO2. In the previous experiments, corn volatiles were introduced into the bottom of the Y-tube and carried through the glass beads by the airstream from the syringe pump. We also tested the possibility that some volatile compounds may have been removed from the airstream by coating out on the glass beads on the bottom of the Y-tube where they would not be available for the larvae to detect at the choice point near the middle of the Y-tube. […]

[2] = system: neonate Western Corn root worm larvae; assay: Larval bioassay in soil tubs with granules; design: species or system Diabrotica species; details: in vivo
Method: The bioassay comprises a laboratory test conducted in tubs (30×15×8 cm) filled with 3000 grams of soil. A single corn seed is placed 2 cm from one end of the tub. After the corn plant is 4 days old, 30 neonate Western Corn root worm larvae are introduced into the soil in the end of the tub opposite the corn seedings. Larvae are given 24 hours to attempt to locate and attack the corn plant. Larvae are recovered from the corn plant. For granule tests, a measured amount (0.25 gram of prepared granule is mixed into 1.0 kg. of soil (20% moisture). This soil is used to fill the center ⅓ of the bioassay tub.

[3] = system: corn root worm neonate larvae; assay: Repellence test, larvae staying on paper (FIG. 78); assay type: in vivo; details: in the presence of a feeding stimulus
Diabrotica larvae = details: Jewett and Bjostad (1996); cited from earlier work

SMILES | role in attraction of larvae to corn roots (conclusion) [1] | also measured
COc1ccc2[nH]c(=O)oc2c1 [MBOA, 6-methoxy-2-benzoxazolinone] | not involved in attraction of western corn root worm larvae | 
CN1COCN(Cc2cnc(Cl)s2)/C1=N\[N+](=O)[O-] [Thiamethoxam] |  | effect on control of larvae provided by attractant granules [2]: greatly improved; repellence to neonate larvae [3]: does not repel corn root worm neonate larvae
ClCCl [dichloromethane] |  | attractiveness to larvae (Diabrotica larvae): attractive to Diabrotica larvae
CCCCC/C=C\C/C=C\CCCCCCCC(=O)O [linoleic acid] | not involved in attraction of western corn root worm larvae | 
CCCCCCCC/C=C\CCCCCCCC(=O)O [oleic acid] | not involved in attraction of western corn root worm larvae | 
CCCCCCCCCCCCCCCCCC(=O)O [stearic acid] | not involved in attraction of western corn root worm larvae | 
